Structures can show the parent of a compound that is named as a salt. Some results are limits rather than exact numbers.

The text below walks through data of patent publication US4398029A, “Quinoline carboxylic acid derivatives and process for the preparation” (Kyorin Seiyaku Kabushiki Kaisha, priority 1981, dated 1983).

Test [1] relates to Acinetobacter anitratus IID 876. Put plainly: Antibacterial activity (MIC), standard agar dilution streak method. The format is cell-based. The method, then:
(§1) The antibacterial activities of the compounds of the present invention were assayed by the standard agar dilution streak method against Gram-positive and Gram-negative bacteria [Chemotherapy, 22, 1126 (1974)].
(Agar dilution tests growth on a series of plates holding different concentrations.)

The test system of test [2] is Alcaligenes faecalis 0104002. The test is described as above. The format is cell-based. Particulars: Alcaligenes faecalis 0104002. The procedure: as §1
Test [3] concerns Bacillus subtilis PCI 219. The description is as above. The class given is cell-based. Particulars: Bacillus subtilis, PCI219. The method, then:
as §1

Test [4] deals with Citrobacter freundii IID 976. The description is as above. The class given is cell-based. As to conditions: Citrobacter freundii IID 976. The procedure:
as §1

The subject of test [5] is Enterobacter cloacae IID 977. Described as above. The format is cell-based. Particulars: Enterobacter cloacae IID 977. The procedure:
as §1

Test [6] has as its system Escherichia coli NIHJ JC-2. The description is as above. As to conditions: Escherichia coli NIHJ JC-2. The format is cell-based. The method, then:
as §1

Test [7] concerns Klebsiella pneumoniae IFO 3512. The description is as above. The class given is cell-based. Particulars: Klebsiella pneumoniae IFO 3512. The procedure:
as §1

For a further test, the system named is P. mirabilis IID 994. The description is as above. The format is cell-based. As to conditions: Proteus mirabilis, IID994; P. mirabilis IID 994; read-out: Minimum inhibitory concentration. The method, then:
as §1

The subject of another test is P. morganii IID 602. The test is described as above. As to conditions: P. morganii IID 602. The class given is cell-based. The procedure:
as §1

Another test deals with Proteus vulgaris 3167. The test is described as above. As to conditions: Proteus vulgaris 3167. The class given is cell-based. The procedure: as §1
Test [8] has as its system Pseudomonas aeruginosa V-1. The test is described as above. As to conditions: V1; Pseudomonas aeruginosa V-1; read-out: Minimum inhibitory concentration. The class given is cell-based. The method, then: as §1
For the next test, the system named is S. epidermidis IID 866. Described as above. The format is cell-based. The method, then:
as §1

Test [9] has as its system Salmonella enteritidis IID 604. The description is as above. The format is cell-based. Particulars: Salmonella enteritidis IID 604. The method, then: as §1
Test [10] relates to Serratia marcescens IID 618. Described as above. The class given is cell-based. Particulars: Serratia marcescens IID 618. The method, then:
as §1

In test [11] the test system is Staphylococcus aureus 209 p. The test is described as above. Particulars: Staphylococcus aureus 209 p; read-out: Minimum inhibitory concentration. The class given is cell-based. The method, then: as §1
Test [12] relates to Yersinia enterocolitica IID 981. The test is described as above. The format is cell-based. Particulars: Yersinia enterocolitica IID 981. The procedure: as §1
The subject of a further test is S. aureus Terajima. The description is as above. The format is cell-based, Staphylococcus aureus. As to conditions: S. aureus Terajima. The procedure: as §1
A further test deals with E. coli ATCC 10536. Described as above. The class given is cell-based, Escherichia coli. The method, then:
as §1

A further test has as its system Shigella sonnei IID 969. Put plainly: microbe, parasite or virus in culture. The class given is cell-based. As to conditions: Shigella sonnei IID 969. The method, then:
as §1

For the next test, the system named is P. aeruginosa IFO 12689. Description: Antibacterial activity (MIC), standard agar dilution streak method. The format is cell-based, Pseudomonas aeruginosa. Particulars: P. aeruginosa IFO 12689. The procedure:
as §1

A further test deals with gram-negative bacteria. As to conditions: prior art statement; cited from earlier work.
A further test has as its system gram-positive bacteria. Particulars: prior art statement; cited from earlier work.
The next test concerns Pseudomonas aeruginosa. As to conditions: prior art statement; cited from earlier work.

On to `CCn1cc(C(=O)O)c(=O)c2cc(F)c(N3CCC(O)CC3)c(F)c21` [Example 16, 1-Ethyl-6,8-difluoro-1,4-dihydro-7-(4-hydroxy-1-piperidinyl)-4-oxoquinoline-3-carboxylic acid silver salt], for which the Minimum inhibitory concentration in [1] was 1.56 µg/mL; in test [2], 3.13 µg/mL; in test [3] it was not above 0.05 µg/mL; in [4] it was 1.56 µg/mL; in test [5], 3.13 µg/mL; in [6] it was 0.78 µg/mL. In addition, the Minimum inhibitory concentration was 0.10 µg/mL in test [7]; 1.56 µg/mL with P. morganii IID 602; 0.10 µg/mL with Proteus vulgaris 3167; 0.39 µg/mL with S. epidermidis IID 866; 1.56 µg/mL in test [9]; 3.13 µg/mL in test [10]. The Minimum inhibitory concentration is 1.56 µg/mL in test [12]; 0.39 µg/mL in the test on S. aureus Terajima; 0.78 µg/mL in the test with E. coli ATCC 10536; 0.39 µg/mL in the test with Shigella sonnei IID 969; 25 µg/mL in the test with P. aeruginosa IFO 12689. Also, the MIC in the test with P. mirabilis IID 994 is 0.39 µg/mL; in test [8], 3.13 µg/mL; in test [11], 0.2 µg/mL.
As for `CCn1cc(C(=O)O)c(=O)c2ccc(C)nc21` [nalidixic acid], in the test with gram-negative bacteria, the “effectiveness in the therapy of infections due to gram-negative bacteria” value (“effectiveness in the therapy” below) was “highly effective”. Also, the “activities against most gram-positive bacteria” value in the test with gram-positive bacteria was “weak activities”. The “activities against Pseudomonas aeruginosa” value with Pseudomonas aeruginosa was “weak activities”.
Regarding `CCn1cc(C(=O)O)c(=O)c2cnc(N3CCNCC3)nc21` [pipemidic acid], in the test on gram-negative bacteria, the “effectiveness in the therapy” value was “highly effective”. Besides, the “activities against most gram-positive bacteria” value in the test on gram-positive bacteria is recorded as “weak activities”. In the test on Pseudomonas aeruginosa, the “activities against Pseudomonas aeruginosa” value is “weak activities”.
Consider `CCn1cc(C(=O)O)c(=O)c2cnc(N3CCCC3)nc21` [piromidic acid], for which the “effectiveness in the therapy” value in the test with gram-negative bacteria is “highly effective”. The “activities against most gram-positive bacteria” value in the test with gram-positive bacteria is given as “weak activities”. The “activities against Pseudomonas aeruginosa” value in the test on Pseudomonas aeruginosa is “weak activities”.
